{"source": "ChEMBL document CHEMBL4311992", "about": "“Discovery of 3-(((9H-purin-6-yl)amino)methyl)-4,6-dimethylpyridin-2(1H)-one derivatives as novel tubulin polymerization inhibitors for treatment of cancer” (Eur J Med Chem, 2019)", "key": {"[1]": {"molecular_target": "SRSF protein kinase 2 (Homo sapiens) (UniProt P78362)", "assay": "Inhibition of human SRPK2 (46 to end residues) using RSRSRSRSRSRSRSR as substrate measured after 40 mins in presence of [gamma33P]ATP by scintillation counting method", "design": "scale not given: the % may be the effect or the level left"}, "[2]": {"molecular_target": "CDC7/Cyclin B1 (Homo sapiens) (UniProt P14635+O00311)", "assay": "Inhibition of recombinant full-length human CDC7/cyclinB1 assessed as residual activity at 10 uM using Histone H1 as substrate measured after 120 mins in presence of [gamma33P]ATP by scintillation counting method", "type": "protein-complex assay"}, "[3]": {"molecular_target": "Testis-specific serine/threonine-protein kinase 4 (Homo sapiens) (UniProt Q6SA08)", "assay": "Inhibition of recombinant full-length human TSSK4 assessed as residual activity at 10 uM using KKLNRTLSFAEPG as substrate measured after 40 mins in presence of [gamma33P]ATP by scintillation counting method"}, "[4]": {"molecular_target": "Tyrosine-protein kinase ABL2 (Homo sapiens) (UniProt P42684)", "sequence (P42684 whole entry)": "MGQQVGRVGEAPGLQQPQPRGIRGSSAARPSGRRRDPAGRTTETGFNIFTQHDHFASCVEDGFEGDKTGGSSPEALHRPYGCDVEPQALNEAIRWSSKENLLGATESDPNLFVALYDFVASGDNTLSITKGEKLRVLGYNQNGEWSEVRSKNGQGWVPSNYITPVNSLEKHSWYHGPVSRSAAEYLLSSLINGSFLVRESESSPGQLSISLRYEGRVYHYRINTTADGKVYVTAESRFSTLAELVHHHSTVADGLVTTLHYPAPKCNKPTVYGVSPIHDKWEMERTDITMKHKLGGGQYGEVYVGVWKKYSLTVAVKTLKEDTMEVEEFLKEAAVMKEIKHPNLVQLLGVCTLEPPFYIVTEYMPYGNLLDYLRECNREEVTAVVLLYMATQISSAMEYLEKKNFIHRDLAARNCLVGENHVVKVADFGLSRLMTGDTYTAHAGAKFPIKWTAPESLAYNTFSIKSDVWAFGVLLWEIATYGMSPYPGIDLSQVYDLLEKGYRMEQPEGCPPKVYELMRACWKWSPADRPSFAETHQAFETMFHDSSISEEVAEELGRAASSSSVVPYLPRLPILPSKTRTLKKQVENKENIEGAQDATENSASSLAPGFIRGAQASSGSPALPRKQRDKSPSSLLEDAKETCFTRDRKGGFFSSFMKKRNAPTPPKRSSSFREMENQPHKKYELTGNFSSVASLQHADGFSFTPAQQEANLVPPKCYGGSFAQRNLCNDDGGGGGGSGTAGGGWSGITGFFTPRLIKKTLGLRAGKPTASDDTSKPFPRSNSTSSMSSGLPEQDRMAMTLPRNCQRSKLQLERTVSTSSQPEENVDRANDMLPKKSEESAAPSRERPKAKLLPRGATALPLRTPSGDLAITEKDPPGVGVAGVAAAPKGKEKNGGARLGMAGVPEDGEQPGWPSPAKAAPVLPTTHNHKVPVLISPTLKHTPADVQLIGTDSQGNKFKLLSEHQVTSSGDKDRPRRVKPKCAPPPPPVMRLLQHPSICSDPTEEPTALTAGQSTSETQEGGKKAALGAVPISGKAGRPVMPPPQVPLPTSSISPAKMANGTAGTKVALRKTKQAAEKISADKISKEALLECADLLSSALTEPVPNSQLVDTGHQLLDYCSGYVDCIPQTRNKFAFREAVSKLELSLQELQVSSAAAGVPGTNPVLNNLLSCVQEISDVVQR", "assay": "Inhibition of recombinant human ARG (38 to end residues) assessed as residual activity at 10 uM using EAIYAAPFAKKK as substrate measured after 40 mins in presence of [gamma33P]ATP by scintillation counting method"}, "[5]": {"molecular_target": "Serine/threonine-protein kinase WNK4 (Homo sapiens) (UniProt Q96J92)", "assay": "Inhibition of human WNK4 using myelin basic protein as substrate measured after 120 mins in presence of [gamma33P]ATP by scintillation counting method", "design": "scale not given: the % may be the effect or the level left"}, "HCT-116": {"tested_on": "HCT-116", "assay": "Induction of apoptosis in human HCT116 cells assessed as early apoptotic cells at 100 nM measured after 48 hrs by Annexin V-FITC/propidium iodide staining-based flow cytometry (reference value: 0.418%)", "type": "functional"}, "[6]": {"molecular_target": "Tyrosine-protein kinase BTK (Homo sapiens) (UniProt Q06187)", "assay": "Inhibition of full-length recombinant human BTK assessed as residual activity at 10 uM using KVEKIGEGTYGVVYK as substrate measured after 40 mins in presence of [gamma33P]ATP by scintillation counting method"}, "[7]": {"molecular_target": "Tyrosine-protein kinase CSK (Homo sapiens) (UniProt P41240)", "assay": "Inhibition of full-length recombinant human CSK assessed as residual activity at 10 uM using poly(Glu, Tyr) 4:1 as substrate measured after 40 mins in presence of [gamma33P]ATP by scintillation counting method"}, "[8]": {"molecular_target": "Serine/threonine-protein kinase TAO2 (Homo sapiens) (UniProt Q9UL54)", "assay": "Inhibition of human TAO2 (1 to 320 residues) using myelin basic protein as substrate measured after 40 mins in presence of [gamma33P]ATP by scintillation counting method", "design": "scale not given: the % may be the effect or the level left"}, "[9]": {"assay": "Hepatotoxicity in nude BALB/c mouse at 80 mg/kg, po administered once daily for 4 weeks measured post-last dose by hematoxylin and eosin staining-based assay", "type": "toxicity, organism-based", "details": "in vivo, 672 h"}, "[10]": {"molecular_target": "Wee1-like protein kinase (Homo sapiens) (UniProt P30291)", "assay": "Inhibition of human Wee1 (214 to end residues) using LSNLYHQGKFLQTFCGSPLYRRR as substrate measured after 40 mins in presence of [gamma33P]ATP by scintillation counting method", "design": "scale not given: the % may be the effect or the level left"}, "[11]": {"molecular_target": "Activin receptor type-1 (Homo sapiens) (UniProt Q04771)", "sequence (Q04771 whole entry)": "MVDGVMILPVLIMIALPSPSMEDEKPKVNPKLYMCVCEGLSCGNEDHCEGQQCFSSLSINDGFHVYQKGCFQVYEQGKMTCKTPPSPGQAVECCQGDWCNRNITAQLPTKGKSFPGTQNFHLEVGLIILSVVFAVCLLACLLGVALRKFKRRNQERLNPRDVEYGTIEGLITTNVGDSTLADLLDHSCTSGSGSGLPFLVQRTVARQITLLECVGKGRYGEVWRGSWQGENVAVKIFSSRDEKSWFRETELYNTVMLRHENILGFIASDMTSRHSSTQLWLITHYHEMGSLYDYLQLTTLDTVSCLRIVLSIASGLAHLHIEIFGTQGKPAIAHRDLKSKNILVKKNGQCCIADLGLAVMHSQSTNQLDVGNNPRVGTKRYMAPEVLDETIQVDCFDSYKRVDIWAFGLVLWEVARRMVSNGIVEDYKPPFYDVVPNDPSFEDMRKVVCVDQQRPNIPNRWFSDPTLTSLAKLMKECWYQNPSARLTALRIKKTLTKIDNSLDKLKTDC", "assay": "Inhibition of recombinant human ALK2 (142 to end residues) assessed as residual activity at 10 uM using casein as substrate measured after 40 mins in presence of [gamma33P]ATP by scintillation counting method"}, "SW-620": {"tested_on": "SW-620", "assay": "Induction of apoptosis in human SW620 cells assessed as necrotic cells at 50 nM measured after 48 hrs by Annexin V-FITC/propidium iodide staining-based flow cytometry (reference value: 2.71%)", "type": "functional"}, "[12]": {"molecular_target": "Homeodomain-interacting protein kinase 1 (Homo sapiens) (UniProt Q86Z02)", "assay": "Inhibition of recombinant human activated HIPK1 (158 to 555 residues) assessed as residual activity at 10 uM using myelin basic protein as substrate measured after 40 mins in presence of [gamma33P]ATP by scintillation counting method"}, "[13]": {"molecular_target": "Testis-specific serine/threonine-protein kinase 3 (Homo sapiens) (UniProt Q96PN8)", "sequence (Q96PN8 whole entry)": "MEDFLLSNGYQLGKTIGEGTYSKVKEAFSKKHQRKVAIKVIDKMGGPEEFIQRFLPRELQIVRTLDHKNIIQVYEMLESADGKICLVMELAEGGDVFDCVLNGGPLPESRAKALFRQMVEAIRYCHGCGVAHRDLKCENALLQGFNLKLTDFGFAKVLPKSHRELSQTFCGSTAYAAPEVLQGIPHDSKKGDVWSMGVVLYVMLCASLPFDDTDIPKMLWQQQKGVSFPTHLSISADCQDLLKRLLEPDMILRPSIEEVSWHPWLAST", "assay": "Inhibition of recombinant full-length human TSSK3 assessed as residual activity at 10 uM using AMARAASAAALARRR as substrate measured after 40 mins in presence of [gamma33P]ATP by scintillation counting method"}, "Homo sapiens": {"organism": "Homo sapiens", "assay": "Inhibition of recombinant full-length human PI3K p120gamma R459Q mutant assessed as residual activity at 10 uM using phosphatidylinositol-4, 5-bisphosphate as substrate measured after 40 mins by fluorescence assay"}, "Tubulin (Homo sapiens)": {"molecular_target": "Tubulin (Homo sapiens) (UniProt P68371+Q9H4B7+P0DPH7+P68366+Q13509+Q71U36+P04350+Q3ZCM7+P07437+P68363+Q9BQE3+Q6PEY2+Q13885+Q9BVA1+Q9BUF5)", "assay": "Disruption of microtubule network in human SW620 cells assessed as microtubule condensation at 50 nM incubated for 18 hrs by FITC/DAPI staining-based confocal microscopic analysis", "type": "cell-based"}, "[14]": {"molecular_target": "Serine/threonine-protein kinase Nek9 (Homo sapiens) (UniProt Q8TD19)", "sequence (Q8TD19 whole entry, the tested form may be a part)": "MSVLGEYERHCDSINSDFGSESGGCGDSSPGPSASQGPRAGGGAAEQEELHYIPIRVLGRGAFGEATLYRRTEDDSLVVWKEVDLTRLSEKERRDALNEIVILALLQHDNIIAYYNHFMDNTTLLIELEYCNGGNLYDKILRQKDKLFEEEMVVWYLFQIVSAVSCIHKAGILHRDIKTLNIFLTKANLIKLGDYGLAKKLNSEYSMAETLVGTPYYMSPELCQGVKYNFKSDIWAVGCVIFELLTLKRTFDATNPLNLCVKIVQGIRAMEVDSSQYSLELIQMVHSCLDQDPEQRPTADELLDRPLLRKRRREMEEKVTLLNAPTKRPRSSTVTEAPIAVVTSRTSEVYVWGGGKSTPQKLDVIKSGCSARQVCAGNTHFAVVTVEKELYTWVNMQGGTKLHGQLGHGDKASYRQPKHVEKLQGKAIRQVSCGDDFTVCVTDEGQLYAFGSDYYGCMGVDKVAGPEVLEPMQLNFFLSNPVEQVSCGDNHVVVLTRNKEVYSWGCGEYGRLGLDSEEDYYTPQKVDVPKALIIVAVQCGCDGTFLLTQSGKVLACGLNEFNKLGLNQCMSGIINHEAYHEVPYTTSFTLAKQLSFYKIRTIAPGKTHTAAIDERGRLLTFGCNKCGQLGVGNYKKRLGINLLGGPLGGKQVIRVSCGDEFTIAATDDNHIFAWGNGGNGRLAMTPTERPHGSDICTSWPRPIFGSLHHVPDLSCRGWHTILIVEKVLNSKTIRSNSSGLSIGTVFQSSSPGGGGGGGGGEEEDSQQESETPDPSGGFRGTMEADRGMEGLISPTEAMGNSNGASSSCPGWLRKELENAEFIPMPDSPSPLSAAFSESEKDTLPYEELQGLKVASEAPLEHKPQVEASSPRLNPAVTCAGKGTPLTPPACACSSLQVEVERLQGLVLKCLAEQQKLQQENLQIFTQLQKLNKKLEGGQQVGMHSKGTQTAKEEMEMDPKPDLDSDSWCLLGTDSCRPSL", "assay": "Inhibition of recombinant human NEK9 (1 to 324 residues) assessed as residual activity at 10 uM using myelin basic protein as substrate measured after 40 mins in presence of [gamma33P]ATP by scintillation counting method"}, "[15]": {"molecular_target": "Rhodopsin kinase GRK1 (Homo sapiens) (UniProt Q15835)", "sequence (Q15835 whole entry)": "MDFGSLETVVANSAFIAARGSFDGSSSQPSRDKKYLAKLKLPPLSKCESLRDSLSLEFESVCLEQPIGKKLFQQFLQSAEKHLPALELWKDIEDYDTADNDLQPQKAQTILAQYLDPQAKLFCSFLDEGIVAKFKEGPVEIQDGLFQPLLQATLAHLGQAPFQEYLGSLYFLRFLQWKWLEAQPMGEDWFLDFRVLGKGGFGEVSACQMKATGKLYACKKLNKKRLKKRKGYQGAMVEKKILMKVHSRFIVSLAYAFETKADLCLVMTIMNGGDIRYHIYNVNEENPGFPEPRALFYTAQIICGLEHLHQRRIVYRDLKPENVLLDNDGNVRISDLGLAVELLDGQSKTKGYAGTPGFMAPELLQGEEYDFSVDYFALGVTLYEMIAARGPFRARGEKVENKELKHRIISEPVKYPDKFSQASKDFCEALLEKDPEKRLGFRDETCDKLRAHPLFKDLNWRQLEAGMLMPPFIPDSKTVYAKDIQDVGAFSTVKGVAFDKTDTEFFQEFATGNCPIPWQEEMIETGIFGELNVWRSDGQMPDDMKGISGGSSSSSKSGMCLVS", "assay": "Inhibition of recombinant full-length human GRK1 assessed as residual activity at 10 uM using KKKKERLLDDRHDSGLDSMKDEE as substrate measured after 40 mins in presence of [gamma33P]ATP by scintillation counting method"}, "[16]": {"molecular_target": "Serine/threonine-protein kinase 26 (Homo sapiens) (UniProt Q9P289)", "sequence (Q9P289 2-416 limits assumed)": "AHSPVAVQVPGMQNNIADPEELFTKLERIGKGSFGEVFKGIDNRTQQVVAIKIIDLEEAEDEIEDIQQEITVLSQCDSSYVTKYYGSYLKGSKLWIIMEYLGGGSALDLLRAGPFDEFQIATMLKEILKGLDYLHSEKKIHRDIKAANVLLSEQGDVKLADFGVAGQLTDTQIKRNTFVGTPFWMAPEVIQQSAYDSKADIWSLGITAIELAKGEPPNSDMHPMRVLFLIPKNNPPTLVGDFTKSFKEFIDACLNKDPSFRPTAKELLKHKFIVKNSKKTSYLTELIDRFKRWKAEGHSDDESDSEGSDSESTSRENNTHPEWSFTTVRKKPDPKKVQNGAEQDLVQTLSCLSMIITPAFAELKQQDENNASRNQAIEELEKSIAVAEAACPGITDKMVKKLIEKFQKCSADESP", "assay": "Inhibition of recombinant human MST4 (4 to 304 residues) assessed as residual activity at 10 uM using RLGRDKYKTLRQIRQ as substrate measured after 40 mins in presence of [gamma33P]ATP by scintillation counting method"}, "[17]": {"molecular_target": "Serine/threonine-protein kinase 16 (Homo sapiens) (UniProt O75716)", "assay": "Inhibition of human STK16 assessed as residual activity at 10 uM by radiometric method"}, "[18]": {"molecular_target": "Mitogen-activated protein kinase kinase kinase 10 (Homo sapiens) (UniProt Q02779)", "sequence (Q02779 whole entry, looked up, the tested form may be a part)": "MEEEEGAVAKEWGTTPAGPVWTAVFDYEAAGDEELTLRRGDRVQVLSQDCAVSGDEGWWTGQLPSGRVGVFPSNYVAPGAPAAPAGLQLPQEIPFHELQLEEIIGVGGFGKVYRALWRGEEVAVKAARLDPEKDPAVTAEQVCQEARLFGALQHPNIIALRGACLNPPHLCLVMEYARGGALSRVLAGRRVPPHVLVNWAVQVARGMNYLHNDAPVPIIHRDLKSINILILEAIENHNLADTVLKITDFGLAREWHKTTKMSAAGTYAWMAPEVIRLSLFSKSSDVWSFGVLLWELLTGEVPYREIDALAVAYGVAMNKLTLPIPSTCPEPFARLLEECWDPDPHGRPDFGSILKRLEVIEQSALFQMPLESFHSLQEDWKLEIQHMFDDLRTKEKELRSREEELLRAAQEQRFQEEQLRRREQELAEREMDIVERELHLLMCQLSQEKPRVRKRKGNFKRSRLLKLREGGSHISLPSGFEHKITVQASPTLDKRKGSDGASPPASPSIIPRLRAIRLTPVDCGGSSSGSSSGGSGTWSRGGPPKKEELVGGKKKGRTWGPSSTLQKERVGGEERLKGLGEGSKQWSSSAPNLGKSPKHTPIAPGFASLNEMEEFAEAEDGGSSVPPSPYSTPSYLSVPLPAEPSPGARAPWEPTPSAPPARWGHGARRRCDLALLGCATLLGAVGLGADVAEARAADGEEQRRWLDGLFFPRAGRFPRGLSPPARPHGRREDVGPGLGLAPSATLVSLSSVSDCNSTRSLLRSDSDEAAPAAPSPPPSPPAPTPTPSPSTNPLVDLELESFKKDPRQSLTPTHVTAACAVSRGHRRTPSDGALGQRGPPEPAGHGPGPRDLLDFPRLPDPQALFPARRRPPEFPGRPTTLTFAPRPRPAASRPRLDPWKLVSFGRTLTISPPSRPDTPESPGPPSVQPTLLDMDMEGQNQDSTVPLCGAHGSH", "assay": "Inhibition of recombinant human MLK2 (1 to 449 residues) assessed as residual activity at 10 uM using myelin basic protein as substrate measured after 40 mins in presence of [gamma33P]ATP by scintillation counting method"}, "[19]": {"molecular_target": "Transient receptor potential cation channel subfamily M member 7 (Homo sapiens) (UniProt Q96QT4)", "assay": "Inhibition of recombinant human CHAK1 (1180 to end residues) assessed as residual activity at 10 uM using myelin basic protein as substrate measured after 40 mins in presence of [gamma33P]ATP by scintillation counting method"}, "[20]": {"molecular_target": "PI3K p110 beta/p85 alpha (Homo sapiens) (UniProt P27986+P42338)", "assay": "Inhibition of recombinant full-length human PI3K p110beta/p85alpha assessed as residual activity at 10 uM using phosphatidylinositol-4, 5-bisphosphate as substrate measured after 40 mins by fluorescence assay", "type": "protein-complex assay"}}, "note": "The source made the active and inactive calls. The calls are words filed in the database; no cut-off is given here."}
{"smiles": "Cc1cc(C)c(CNc2nc(Cl)nc3c2ncn3C2CCCC2)c(=O)[nH]1", "values": [{"measurement": "Activity", "setting": "[1]", "result": 106, "unit": "%"}, {"measurement": "Activity", "setting": "[2]", "result": 102, "unit": "%"}, {"measurement": "Activity", "setting": "[3]", "result": 138, "unit": "%"}, {"measurement": "Activity", "setting": "[4]", "result": 115, "unit": "%"}, {"measurement": "Activity", "setting": "[5]", "result": 98.5, "unit": "%"}, {"measurement": "Activity", "setting": "HCT-116", "result": 5.35, "unit": "%"}, {"measurement": "Activity", "setting": "[6]", "result": 85, "unit": "%"}, {"measurement": "Activity", "setting": "[7]", "result": 98, "unit": "%"}, {"measurement": "Activity", "setting": "[8]", "result": 104, "unit": "%"}, {"measurement": "Activity", "setting": "[9]", "result": "Non-Toxic"}, {"measurement": "Activity", "setting": "[10]", "result": 84.5, "unit": "%"}, {"measurement": "Activity", "setting": "[11]", "result": 106, "unit": "%"}, {"measurement": "Activity", "setting": "SW-620", "result": 6.3, "unit": "%"}, {"measurement": "Activity", "setting": "[12]", "result": 100, "unit": "%"}, {"measurement": "Activity", "setting": "[13]", "result": 124, "unit": "%"}, {"measurement": "Activity", "setting": "Homo sapiens", "result": 109, "unit": "%"}, {"measurement": "Activity", "setting": "Tubulin (Homo sapiens)", "result": "Active"}, {"measurement": "Activity", "setting": "[14]", "result": 102, "unit": "%"}, {"measurement": "Activity", "setting": "[15]", "result": 90.5, "unit": "%"}, {"measurement": "Activity", "setting": "[16]", "result": 132, "unit": "%"}, {"measurement": "Activity", "setting": "[17]", "result": 102, "unit": "%"}, {"measurement": "Activity", "setting": "[18]", "result": 91, "unit": "%"}, {"measurement": "Activity", "setting": "[19]", "result": 108, "unit": "%"}, {"measurement": "Activity", "setting": "[20]", "result": 104, "unit": "%"}]}
